Measured values published in patent US4335138A, “Novel carbamates, their preparation, and pharmaceutical formulations containing these compounds” (BASF Aktiengesellschaft, priority 1979, dated 1982).

What was measured:
[1] = in vivo; conditions: rat, ip; for selectivity ratio: Therapeutic range
Method: (§1) The acute toxicity is determined on groups of 10 rats of the same strain as above, again for intraperitoneal administration.
(§2) The comparison substance used is the well known hypnotic Ethinamate (1-ethynyl-cyclohexyl carbamate).

[2] = test system: rats; assay: in vivo; conditions: rat, ip, 681 mg/kg
Method: as §1, §2

[3] = test system: rats; assay: Hypnotic action on intraperitoneal administration (period of absence of the righting reflex, duration of sleep); format: in vivo, female Sprague-Dawley rats; conditions: for ED (60 min sleep): Rattus norvegicus, 1 h, dose which causes a 60 minute period of sleep, regression analysis
Method: To investigate the hypnotic action, these substances are administered intraperitoneally to groups of 4-8 female Sprague-Dawley rats each weighing 145-200 g. The period of absence of the righting reflex (ie. the duration of sleep) served as a criterion of the hypnotic action.
Linear relationships exist between the logarithms of the administered doses (mg/kg) and the logarithms of the period of sleep (min), from which relationships the dose which causes a 60 minute period of sleep is calculated, as the ED 60 min, by regression analysis.

[4] = German Laid-Open Application DOS No. 2,346,305; cited from earlier work

Row | SMILES | LD50 at 6 h [1] [mg/kg] | selectivity ratio [1] | Mortality rate [2] | ED (60 min sleep) ([3]; ip, intraperitoneal, rats) [mg/kg] | R.A. (relative activity) ([3]; rat, in vivo, ip) | Analgesic properties (in words), prior art [4] | R.A. (relative activity) ([3]; Ethinamate = 1.00, intraperitoneal, rats)
1 | CC(=O)[C@]1(COC(=O)NC(C)C2CC2)C[C@@H]2C=C[C@H]1C2 (stereo partly drawn) [Example 98, exo-2-[N-(1-cyclopropylethyl)-carbamyloxymethyl]-norborn-5-en-2-yl methyl ketone] | ≥ 681 | ≥ 22.5 | 0/10 | 30.3 | 2.29 | – | –
2 | CC(=O)[C@]1(COC(=O)NC(C)C)C[C@@H]2C=C[C@H]1C2 (relative stereo) [Example 7, exo-2-(N-isopropylcarbamyloxymethyl)-norborn-5-en-2-yl methyl ketone] | 137 | 6.6 | – | 20.7 | 3.35 | – | –
3 | CC(=O)[C@]1(COC(=O)NC2CC2)C[C@@H]2C=C[C@H]1C2 (relative stereo) [Example 109, exo-2-(N-cyclopropylcarbamyloxymethyl)-norborn-5-en-2-yl methyl ketone] | 187 | 6.9 | – | 27.2 | 2.55 | – | –
4 | CCCNC(=O)OC[C@@]1(C(C)=O)C[C@@H]2C=C[C@H]1C2 (relative stereo) [Example 4, exo-2-(N-n-propylcarbamyloxymethyl)-norborn-5-en-2-yl methyl ketone] | 392 | 18.2 | – | 21.5 | 3.22 | – | –
5 | CNC(=O)OC1OC(=O)C2C3C=CC(C3)C12 (stereo not shown) [4-oxa-5-(5-methylcarbamyloxy)-tricyclo[5,2,1,0^2,6]-dec-8-en-3-one] | – | – | – | – | – | exhibit analgesic properties | –
6 | CCCNC(=O)OCC1(C(C)=O)CC=CCC1 (stereo not shown) [Example 52, 1-(N-propylcarbamyloxymethyl)-cyclohex-3-enyl methyl ketone] | 215 | 7.5 | – | 28.5 | 2.43 | – | –
7 | CC(=O)[C@]1(COC(=O)NC(C)C)C[C@@H]2CC[C@H]1C2 (relative stereo) [Example 36, exo-2-(N-isopropylcarbamyloxymethyl)-norborn-2-yl methyl ketone] | 464 | 12.3 | – | 37.6 | 1.84 | – | –
8 | CCC(C)NC(=O)OC[C@@]1(C(C)=O)C[C@@H]2C=C[C@H]1C2 (stereo partly drawn) [Example 88, exo-2-(N-but-2-yl-carbamyloxymethyl)-norborn-5-en-2-yl methyl ketone] | 150 | 4.9 | – | 30.8 | 2.25 | – | –
9 | CC(=O)[C@]1(COC(=O)NCC(C)C)C[C@@H]2C=C[C@H]1C2 (relative stereo) [Example 87, exo-2-(N-(2-methylpropyl)-carbamyloxymethyl)-norborn-5-en-2-yl methyl ketone] | 482 | 10.3 | – | 46.7 | 1.48 | – | –
10 | CC(=O)[C@]1(COC(=O)NC2CCCC2)C[C@@H]2C=C[C@H]1C2 (relative stereo) [Example 15, exo-2-(N-cyclopentylcarbamyloxymethyl)-norborn-5-en-2-yl methyl ketone] | 247 | 5.3 | – | 46.4 | 1.49 | – | –
11 | C#CC1(OC(N)=O)CCCCC1 [Ethinamate, 1-ethynyl-cyclohexyl carbamate, reference compound] | – | – | – | 69.3 | – | – | 1.00
